The target of one experiment is T1, EED (1-441)-His protein (Homo sapiens, UniProt O75530).
T1 construct: 30 nM EED (1-441)-His protein
Briefly: EED-H3K27Me3 peptide competition binding assay by AlphaScreen. The following applies: read-out: (a) IC50 EED Alphascreen binding Qualified. Summed up:
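Serially diluted compound (12 points, 3-fold) incubated 20 min with 30 nM EED(1-441)-His and 15 nM biotin-H3K27Me3(19-33) peptide in 25 mM HEPES pH 8, 0.02% Tween-20, 0.5% BSA. Ni-chelate acceptor/streptavidin donor beads (10 μg/mL each) added, 1 h rt dark; 615 nm emission normalized to controls, dose-response fit for IC50.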

The subject of experiment [1] is H3K27 methylation in G401 cell. The experiment in a line: ELISA (H3K27 methylation) assay in G401 cells. In kind it is cell-based, human. The settings on record: Homo sapiens. The method in brief:
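G401 cells treated 48 h with 3-fold dilutions (8 or 12 points, top 20 μM). Acid-extracted histones probed by ELISA for H3K27me3 or H3K27me2 with ECL readout, normalized to total H3. Percent inhibition versus DMSO fitted to dose-response curve for IC50.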
For orientation: ELISA stands for enzyme-linked immunosorbent assay.

Experiment [2] deals with wild type PRC2 (wtPRC2) complex (Homo sapiens, UniProt O75530). The experiment in a line: EED LC-MS assay (SAH production by PRC2). The settings on record: read-out: (b) IC50 EED LC-MS Qualified. In kind it is biochemical. Summed up:
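Pentameric PRC2 (EZH2, SUZ12, EED, Rbap48, AEBP), 12 nM final, preincubated 20 min with compound and SAM, then 1.5 μM biotinylated H3K27me0 peptide, 1 μM SAM, pH 8.0, 120 min at rt. SAH quantified by LC-MS/MS with d4-SAH; control-normalized activity fitted for IC50.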

[3] abbreviates: G-401, read-out: (c) IC50 ELISA Qualified.

Structures are written as SMILES. Read-outs that look alike come from different tables or passages of the source.

wild type PRC2 (wtPRC2) complex, sequence (O75530 whole entry): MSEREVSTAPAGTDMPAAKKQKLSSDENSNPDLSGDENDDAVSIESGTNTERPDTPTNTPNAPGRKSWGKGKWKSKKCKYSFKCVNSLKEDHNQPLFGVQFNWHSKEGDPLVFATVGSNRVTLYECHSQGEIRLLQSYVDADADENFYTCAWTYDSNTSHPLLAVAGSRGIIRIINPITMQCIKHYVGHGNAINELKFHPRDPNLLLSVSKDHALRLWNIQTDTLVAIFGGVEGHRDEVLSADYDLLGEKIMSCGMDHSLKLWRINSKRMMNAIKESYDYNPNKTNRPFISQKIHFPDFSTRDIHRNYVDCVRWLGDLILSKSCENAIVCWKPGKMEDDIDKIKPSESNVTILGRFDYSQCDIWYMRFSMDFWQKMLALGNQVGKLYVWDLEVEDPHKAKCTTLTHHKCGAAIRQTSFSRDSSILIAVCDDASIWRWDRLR
wild type PRC2 (wtPRC2) complex, sequence (Q15910 whole entry partner): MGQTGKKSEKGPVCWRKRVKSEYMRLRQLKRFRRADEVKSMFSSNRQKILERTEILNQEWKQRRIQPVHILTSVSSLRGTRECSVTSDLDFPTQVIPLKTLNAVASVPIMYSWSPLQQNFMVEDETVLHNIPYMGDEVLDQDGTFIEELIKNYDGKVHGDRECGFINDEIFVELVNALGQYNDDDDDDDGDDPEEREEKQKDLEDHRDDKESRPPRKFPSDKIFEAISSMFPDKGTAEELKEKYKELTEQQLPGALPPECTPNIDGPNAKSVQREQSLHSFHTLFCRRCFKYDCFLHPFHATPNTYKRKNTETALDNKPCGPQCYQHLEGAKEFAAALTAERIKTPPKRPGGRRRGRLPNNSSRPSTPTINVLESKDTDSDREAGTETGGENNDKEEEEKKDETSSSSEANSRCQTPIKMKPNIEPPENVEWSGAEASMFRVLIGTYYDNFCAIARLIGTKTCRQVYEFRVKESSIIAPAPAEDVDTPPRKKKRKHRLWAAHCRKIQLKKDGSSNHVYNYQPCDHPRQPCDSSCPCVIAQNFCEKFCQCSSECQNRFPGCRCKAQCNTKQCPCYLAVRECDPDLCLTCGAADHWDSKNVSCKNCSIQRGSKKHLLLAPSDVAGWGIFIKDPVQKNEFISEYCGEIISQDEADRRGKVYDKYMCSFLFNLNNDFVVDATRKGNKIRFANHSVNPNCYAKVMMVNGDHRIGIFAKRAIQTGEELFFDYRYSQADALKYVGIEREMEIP
wild type PRC2 (wtPRC2) complex, sequence (Q15022 whole entry partner): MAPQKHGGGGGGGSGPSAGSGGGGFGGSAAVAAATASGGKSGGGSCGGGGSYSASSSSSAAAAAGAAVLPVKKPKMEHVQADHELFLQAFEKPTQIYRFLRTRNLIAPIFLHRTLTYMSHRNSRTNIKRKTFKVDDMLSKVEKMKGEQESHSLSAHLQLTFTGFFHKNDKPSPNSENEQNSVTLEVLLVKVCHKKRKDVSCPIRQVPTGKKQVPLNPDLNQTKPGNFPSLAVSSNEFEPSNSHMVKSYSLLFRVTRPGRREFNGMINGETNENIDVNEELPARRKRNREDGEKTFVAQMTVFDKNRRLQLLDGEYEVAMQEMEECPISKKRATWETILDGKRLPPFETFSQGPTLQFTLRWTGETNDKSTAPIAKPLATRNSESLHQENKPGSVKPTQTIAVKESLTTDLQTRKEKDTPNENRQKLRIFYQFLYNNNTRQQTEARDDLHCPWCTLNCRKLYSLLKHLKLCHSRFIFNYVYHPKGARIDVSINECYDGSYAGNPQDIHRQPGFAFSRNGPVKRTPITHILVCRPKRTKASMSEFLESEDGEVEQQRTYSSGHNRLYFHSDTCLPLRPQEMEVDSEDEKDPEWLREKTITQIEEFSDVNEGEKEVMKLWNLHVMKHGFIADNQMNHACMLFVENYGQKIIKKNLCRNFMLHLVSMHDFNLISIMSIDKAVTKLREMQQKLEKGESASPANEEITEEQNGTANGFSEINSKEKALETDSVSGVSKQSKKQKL
wild type PRC2 (wtPRC2) complex, sequence (Q09028 whole entry partner): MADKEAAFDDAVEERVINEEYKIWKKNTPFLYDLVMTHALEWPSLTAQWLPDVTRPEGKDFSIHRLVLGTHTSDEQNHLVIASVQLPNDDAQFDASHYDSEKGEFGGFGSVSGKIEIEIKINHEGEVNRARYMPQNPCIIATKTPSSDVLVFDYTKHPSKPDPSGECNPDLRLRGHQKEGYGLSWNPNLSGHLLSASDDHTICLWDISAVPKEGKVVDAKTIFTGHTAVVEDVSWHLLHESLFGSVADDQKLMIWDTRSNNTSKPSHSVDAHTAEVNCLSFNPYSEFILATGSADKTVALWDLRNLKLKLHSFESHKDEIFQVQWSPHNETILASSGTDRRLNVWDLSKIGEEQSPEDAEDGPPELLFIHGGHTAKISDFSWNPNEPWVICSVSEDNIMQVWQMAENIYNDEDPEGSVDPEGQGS
wild type PRC2 (wtPRC2) complex, sequence (Q6ZN18 whole entry partner): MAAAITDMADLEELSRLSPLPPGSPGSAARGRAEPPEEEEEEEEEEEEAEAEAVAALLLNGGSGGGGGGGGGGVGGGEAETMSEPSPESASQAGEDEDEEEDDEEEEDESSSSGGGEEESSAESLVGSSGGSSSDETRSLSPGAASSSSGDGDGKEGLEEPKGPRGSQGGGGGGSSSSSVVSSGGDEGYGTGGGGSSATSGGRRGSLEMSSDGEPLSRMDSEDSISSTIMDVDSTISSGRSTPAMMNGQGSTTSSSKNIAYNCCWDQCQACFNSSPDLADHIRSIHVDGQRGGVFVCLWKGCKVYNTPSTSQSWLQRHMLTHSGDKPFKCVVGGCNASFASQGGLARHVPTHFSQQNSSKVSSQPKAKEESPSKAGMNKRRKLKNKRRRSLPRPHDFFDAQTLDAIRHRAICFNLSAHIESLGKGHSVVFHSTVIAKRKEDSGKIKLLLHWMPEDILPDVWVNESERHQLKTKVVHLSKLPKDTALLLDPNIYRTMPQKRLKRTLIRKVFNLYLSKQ
T1 sequence (O75530 whole entry): as the sequence (O75530 whole entry) above

As for `COc1cccc(F)c1CNc1ccc(-c2cnccc2CO)c2nncn12` [Example 345, (3-(5-((2-fluoro-6-methoxy benzyl)amino)-[1,2,4]triazolo[4,3-a]pyridin-8-yl)pyridin-4-yl)methanol], the IC50 – broadly, the midpoint of a concentration-inhibition curve – is 7.6 nM at EED (1-441)-His protein (EED-H3K27Me3 peptide competition, AlphaScreen); 10.4 nM in experiment [1] (G-401, H3K27 methylation ELISA, read-out: (c) IC50 ELISA Qualified); 24.5 nM in experiment [2] (PRC2 LC-MS assay).
As for `COc1ncccc1CNc1ccc(-c2cnc(C)nc2C)c2nncn12` [Example 348, 8-(2,4-dimethylpyrimidin-5-yl)-N-((2-methoxypyridin-3-yl)methyl)-[1,2,4]triazolo [4,3-a]pyridin-5-amine], the IC50 was 85.1 nM on EED (1-441)-His protein, 45.5 nM in experiment [1] (setting [3]) and 209 nM in experiment [2].
On the same counts, the results for `COc1cc(F)cc(F)c1CNc1ccc(-c2cnc(OC(C)C)nc2C)c2nncn12` [Example 349, N-(2,4-difluoro-6-methoxybenzyl)-8-(2-isopropoxy-4-methylpyrimidin-5-yl)-[1,2,4]triazolo[4,3-a]pyridin-5-amine] are 22.9 nM, 31.2 nM and 291 nM.
On the same counts, the results for `COc1cccc(F)c1CNc1ccc(-c2cc(C#N)cnc2C)c2nncn12` [Example 350, 5-(5-((2-fluoro-6-methoxybenzyl)amino)-[1,2,4]triazolo[4,3-a]pyridin-8-yl)-6-methylnicotinonitrile] are 32.2 nM, 16.4 nM and 45.4 nM.
On the same counts, the results for `COc1cccc(F)c1CNc1ccc(-c2ccc(C(C)C)nc2C)c2nncn12` [Example 351, N-(2-fluoro-6-methoxybenzyl)-8-(6-isopropyl-2-methylpyridin-3-yl)-[1,2,4]triazolo[4,3-a]pyridin-5-amine] are 23.4 nM, 15.5 nM and 22.9 nM.
Turning to `COc1cccc(F)c1CNc1ccc(-c2cnc(C(C)C)cc2C)c2nncn12` [Example 352, N-(2-fluoro-6-methoxybenzyl)-8-(6-isopropyl-4-methylpyridin-3-yl)-[1,2,4] triazolo[4,3-a]pyridin-5-amine], the IC50 on EED (1-441)-His protein turned out to be 29.5 nM; in experiment [1] (setting [3]), 32 nM; in experiment [2], 106 nM.
On the same counts, the results for `COc1cccc(F)c1CNc1ccc(-n2cc(C)cn2)c2nncn12` [Example 353, N-(2-fluoro-6-methoxybenzyl)-8-(4-methyl-1H-pyrazol-1-yl)-[1,2,4]triazolo [4,3-a]pyridin-5-amine] are 25.8 nM, 39.3 nM and 156 nM.
For `COc1cccc(F)c1CNc1ccc(-n2cnc(C)c2)c2nncn12` [Example 354, N-(2-fluoro-6-methoxybenzyl)-8-(4-methyl-1H-imidazol-1-yl)-[1,2,4]triazolo [4,3-a]pyridin-5-amine], in that order: 26.1 nM, 21.4 nM and 60.6 nM.
On the same counts, the results for `COc1cccc(F)c1CNc1ccc(-c2nc(C)nn2C)c2nncn12` [Example 355, 8-(1,3-dimethyl-1H-1,2,4-triazol-5-yl)-N-(2-fluoro-6-methoxybenzyl)-[1,2,4] triazolo[4,3-a]pyridin-5-amine] are 15.8 nM, 11.7 nM and 30.5 nM.
Consider `COc1cccc(F)c1CNc1ccc(-c2ncnn2C)c2nncn12` [Example 356, N-(2-fluoro-6-methoxybenzyl)-8-(1-methyl-1H-1,2,4-triazol-5-yl)-[1,2,4] triazolo[4,3-a]pyridin-5-amine], for which the IC50 was 19 nM at EED (1-441)-His protein, 14 nM in experiment [1] (setting [3]) and 117 nM in experiment [2].
For `COc1cccc(F)c1CNc1ccc(-n2cccn2)c2nncn12` [Example 357, N-(2-fluoro-6-methoxybenzyl)-8-(1H-pyrazol-1-yl)-[1,2,4]triazolo[4,3-a]pyridin-5-amine], in that order: 25.6 nM, 38.9 nM and 144 nM.
On the same counts, the results for `COc1cccc(F)c1CNc1ccc(-n2cncn2)c2nncn12` [Example 358, N-(2-fluoro-6-methoxybenzyl)-8-(1H-1,2,4-triazol-1-yl)-[1,2,4]triazolo[4,3-a] pyridin-5-amine] are 17.1 nM, 19.5 nM and 286 nM.
For `COc1cccc(F)c1CNc1ccc(-n2ccc(C)n2)c2nncn12` [Example 359, N-(2-fluoro-6-methoxybenzyl)-8-(3-methyl-1H-pyrazol-1-yl)-[1,2,4]triazolo [4,3-a]pyridin-5-amine], in that order: 42.9 nM, 55.1 nM and 274 nM.
With `COc1cccc(F)c1CNc1ccc(-n2ccnn2)c2nncn12` [Example 361, N-(2-fluoro-6-methoxybenzyl)-8-(1H-1,2,3-triazol-1-yl)-[1,2,4]triazolo[4,3-a] pyridin-5-amine], the IC50 on EED (1-441)-His protein is 15.1 nM; in experiment [1] (setting [3]), 21.1 nM; in experiment [2], 69.6 nM.
For `COc1cccc(F)c1CNc1ccc(-n2ccnc2C)c2nncn12` [Example 362, N-(2-fluoro-6-methoxybenzyl)-8-(2-methyl-1H-imidazol-1-yl)-[1,2,4]triazolo [4,3-a]pyridin-5-amine], in that order: 39.8 nM, 17 nM and 33.4 nM.
As for `COc1cccc(F)c1CNc1ccc(-n2ccnc2)c2nncn12` [Example 363, N-(2-fluoro-6-methoxybenzyl)-8-(1H-imidazol-1-yl)-[1,2,4]triazolo[4,3-a] pyridin-5-amine], the results for the IC50 (at EED (1-441)-His protein; in experiment [1] (setting [3]); in experiment [2]) were 25 nM, 19.3 nM and 55.4 nM, respectively.
On the same counts, the results for `COc1cccc(F)c1CNc1ccc(-c2cnc(C)n2C)c2nncn12` [Example 366, 8-(1,2-dimethyl-1H-imidazol-5-yl)-N-(2-fluoro-6-methoxybenzyl)-[1,2,4]triazolo[4,3-a]pyridin-5-amine] are 13.3 nM, 3.4 nM and 45.5 nM.
For `COc1cccc(F)c1CNc1ccc(-n2cc(C)c(C)n2)c2nncn12` [Example 367, 8-(3,4-dimethyl-1H-pyrazol-1-yl)-N-(2-fluoro-6-methoxybenzyl)-[1,2,4]triazolo[4,3-a] pyridin-5-amine], in that order: 23.5 nM, 29.1 nM and 113 nM.
As to `COc1cccc(F)c1CNc1ccc(-c2ccc(NC(=O)N(C)C)nc2C)c2nncn12` [Example 368, 3-(5-(5-((2-fluoro-6-methoxybenzyl)amino)-[1,2,4]triazolo[4,3-a]pyridin-8-yl)-6-methylpyridin-2-yl)-1,1-dimethylurea], the IC50 turned out to be 11.7 nM on EED (1-441)-His protein, 6.5 nM in experiment [1] (setting [3]) and 70.9 nM in experiment [2].
For `COc1cccc(F)c1CNc1ccc(-c2ccc(C(C)(C)C#N)nc2C)c2nncn12` [Example 369, 2-(5-(5-((2-fluoro-6-methoxybenzyl)amino)-[1,2,4]triazolo[4,3-a]pyridin-8-yl)-6-methylpyridin-2-yl)-2-methylpropanenitrile], in that order: 5.2 nM, 2.9 nM and 205 nM.
On the same counts, the results for `COc1cccc(F)c1CNc1ccc(-c2c(C)cnn2C)c2nncn12` [Example 370, 8-(1,4-dimethyl-1H-pyrazol-5-yl)-N-(2-fluoro-6-methoxybenzyl)-[1,2,4]triazolo[4,3-a] pyridin-5-amine] are 25.8 nM, 20 nM and 108 nM.
For `COc1cccc(F)c1CNc1ccc(-c2cnc(C)nc2OC)c2nncn12` [Example 372, N-(2-fluoro-6-methoxybenzyl)-8-(4-methoxy-2-methylpyrimidin-5-yl)-[1,2,4]triazolo[4,3-a]pyridin-5-amine], in that order: 21.1 nM, 33.8 nM and 118 nM.
On to `COc1cc(F)cc(F)c1CNc1ccc(-c2cnc(C)nc2OC)c2nncn12` [Example 373, N-(2,4-difluoro-6-methoxybenzyl)-8-(4-methoxy-2-methylpyrimidin-5-yl)-[1,2,4] triazolo[4,3-a]pyridin-5-amine], for which the figures for the IC50 (on EED (1-441)-His protein; in experiment [1] (setting [3]); in experiment [2]) were 48.7 nM, 64.1 nM and 494 nM, respectively.
On the same counts, the results for `COc1ncccc1CNc1ccc(-c2ccc(CN(C)C)cc2)c2nncn12` [Example 374, 8-(4-((dimethylamino)methyl)phenyl)-N-((2-methoxypyridin-3-yl)methyl)-[1,2,4]triazolo[4,3-a] pyridin-5-amine] are 58.3 nM, 46.7 nM and 144 nM.

(Values after patent US10689378B2, “Triazolopyridine compounds and uses thereof” (Novartis AG, priority 2016, dated 2020).)
